# Results as given in patent US20070276034A1, “Compounds, compositions and methods for the treatment of synucleinopathies” (priority 2002, published 2007).
# Read-outs that look alike come from different tables or passages of the source.
# Key:
# Format in all cases: biochemical
# Aβ 1-42 fibrils = target: T1, Aβ 1-42 fibrils (Homo sapiens, UniProt P05067); test: Thioflavin T fluorometry - disruption of pre-formed Aβ 1-42 Alzheimer's fibrils; conditions: 25 μM pre-fibrillized Aβ 1-42, 37° C., 3 days; for inhibition: read-out: % Inhibition Aβ (result ± S.D.)
# T1 construct: purchased Bachem Inc
# T1 sequence (P05067 672-713): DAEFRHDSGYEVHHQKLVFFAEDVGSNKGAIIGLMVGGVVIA
# Summary of the method: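 Pre-fibrillized Aβ1-42 (25 µM) incubated 3 days at 37 °C alone or with compound at Aβ:compound weight ratios 1:1 to 1:0.001. Remaining fibrils quantified by Thioflavin T fluorescence (ex 444/em 485 nm) in phosphate buffer pH 6.8, blank-subtracted for buffer or compound alone.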
# IAPP fibrils [1] = target: T2, IAPP fibrils (Homo sapiens, UniProt P10997); test: Thioflavin T fluorometry - disruption of type 2 diabetes IAPP fibrils; conditions: 25 μM pre-fibrillized IAPP, 37° C., 3 days; for inhibition: read-out: % Inhibition IAPP (result ± S.D.)
# T2 construct: purchased Bachem Inc
# T2 sequence (P10997 34-70 limits assumed): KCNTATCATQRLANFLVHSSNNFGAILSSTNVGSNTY
# Summary of the method: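 Pre-fibrillized human IAPP (25 μM) incubated 3 days at 37 °C alone or with compound at IAPP:compound weight ratios of 1:1 to 1:0.001. Mixtures then mixed with Thioflavin T in phosphate buffer pH 6.8; fluorescence read at 485 nm (ex 444 nm) after blank subtraction.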
# IAPP fibrils [2] = target: T2, IAPP fibrils; test: Congo red binding assay with IAPP fibrils; conditions: 3-day incubation
# Summary of the method: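 Congo red staining of washed 0.2 μm filters measured the aggregated IAPP retained after a 3-day co-incubation with compound or EDTA. Weight ratios IAPP:compound were 1:1, 1:0.1, 1:0.01 or 1:0.001; loss of color relative to compound-free IAPP was scored.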
# NAC fibrils = target: T3, NAC fibrils (Homo sapiens, UniProt P37840); test: Thioflavin T fluorometry - disruption of Parkinson's disease NAC fibrils; conditions: 3 days; for inhibition / % Inhibition NAC (result ± S.D.): 25 μM pre-fibrillized NAC, 37° C.; for inhibition: read-out: % Inhibition NAC (result ± S.D.); for disruption/disassembly of pre-formed NAC fibrils (in words): all concentrations tested (ratios 1:1 to 1:0.001)
# T3 construct: NAC is a 35-amino acid fragment of α-synuclein; purchased Bachem Inc
# Method: In this assay, Thioflavin T binds specifically to NAC fibrils, and this binding produces a fluorescence enhancement at 485 nm that is directly proportional to the amount of NAC fibrils present. The higher the fluorescence, the greater the amount of NAC fibrils present (Naki et al, Lab. Invest. 65:104-110, 1991; Levine III, Protein Sci. 2:404-410, 1993; Amyloid: Int. J. Exp. Clin. Invest. 2:1-6, 1995).
# In this study, 25 μM of pre-fibrillized NAC (Bachem Inc) was incubated at 37° C. for 3 days either alone or in the presence of dihydroxy synthetic analog compounds #1, 3, 23, 26, 52, 63, 66, 67, or EDTA (at NAC:test compound weight ratios of 1:1, 1:0.1, 1:0.01 or 1:0.001). Following 3-days of co-incubation, 50 βl of each incubation mixture was transferred into a 96-well microtiter plate containing 150 μl of distilled water and 50 μl of a Thioflavin T solution (i.e. 500 mM Thioflavin T in 250 mM phosphate buffer, pH 6.8). The fluorescence was read at 485 nm (444 nm excitation wavelength) using an ELISA plate fluorometer after subtraction with buffer alone or compound alone, as blank.
# [3] = Aβ:test compound wt/wt ratio 1:0.001
# [4] = Aβ:test compound wt/wt ratio 1:0.01
# [5] = Aβ:test compound wt/wt ratio 1:0.1
# [6] = Aβ:test compound wt/wt ratio 1:1
# [7] = IAPP:test compound wt/wt ratio 1:0.001
# [8] = IAPP:test compound wt/wt ratio 1:0.01
# [9] = IAPP:test compound wt/wt ratio 1:0.1
# [10] = IAPP:test compound wt/wt ratio 1:1
# [11] = NAC:test compound wt/wt ratio 1:0.001
# [12] = NAC:test compound wt/wt ratio 1:0.01
# [13] = NAC:test compound wt/wt ratio 1:0.1
# [14] = NAC:test compound wt/wt ratio 1:1
inhibition (NAC fibrils; [11]),inhibition (NAC fibrils; [12]),inhibition (NAC fibrils; [14]),Compound,inhibition (Aβ 1-42 fibrils; [3]),inhibition (Aβ 1-42 fibrils; [4]),inhibition (Aβ 1-42 fibrils; [5]),inhibition (Aβ 1-42 fibrils; [6]),inhibition (IAPP fibrils [1]; [7]),inhibition (IAPP fibrils [1]; [8]),inhibition (IAPP fibrils [1]; [9]),inhibition (IAPP fibrils [1]; [10]),"% Inhibition IAPP (result ± S.D.), Congo red binding (IAPP fibrils [2]; [7])","% Inhibition IAPP (result ± S.D.), Congo red binding (IAPP fibrils [2]; [8])","% Inhibition IAPP (result ± S.D.), Congo red binding (IAPP fibrils [2]; [9])","% Inhibition IAPP (result ± S.D.), Congo red binding (IAPP fibrils [2]; [10])",disruption/disassembly of pre-formed NAC fibrils (in words) (NAC fibrils),also measured
0%,56.8 ± 4.6%,70.4 ± 3.22%,"O=C(N[C@@H]1CCCC[C@H]1NC(=O)c1ccc(O)c(O)c1)c1ccc(O)c(O)c1 (relative stereo) [Compound 26, N,N′-bis(3,4-dihydroxybenzoyl)-trans-1,2-diaminocyclohexane]",0%,0%,11.7 ± 3.67%,37.8 ± 5.5%,3.7 ± 4.67%,24.6 ± 6.77%,45.9 ± 17.7%,52.5 ± 2.44%,10.8 ± 2.63%,5.3 ± 6.14%,7.5 ± 2.83%,0.0 ± 1.21%,,inhibition (NAC fibrils; [13]): 61.3 ± 6.52%
0%,68.2 ± 2.55%,100 ± 1%,"O=C(c1ccc(O)c(O)c1)C(O)c1ccc(O)c(O)c1 (centres unmarked) [Compound 1, 3,4,3′,4′-tetrahydroxybenzoin]",0%,19.2 ± 4.31%,64.8 ± 1.98%,97.3 ± 0.23%,6.4 ± 4.4%,57.3 ± 0.16%,93 ± 1.27%,99 ± 0.11%,,18.6 ± 4.05%,10.6 ± 3.40%,40.7 ± 2.49%,dose-dependent disruption/disassembly,inhibition (NAC fibrils; [13]): 99.5 ± 0.53%
,,,"Oc1ccc(Cc2ccc(O)c(O)c2)cc1O [Compound 3, 3,4,3′,4′-tetrahydroxydiphenylmethane]",,,,,,,,,11.1 ± 5.26%,16.3 ± 1.13%,37.9±3.10%,55.5±2.68%,dose-dependent disruption/disassembly,% Inhibition Aβ (result ± S.D.) (Aβ 1-42 fibrils; [3]): 5.5 ± 1.99%; % Inhibition Aβ (result ± S.D.) (Aβ 1-42 fibrils; [4]): 53.1 ± 1.67%; % Inhibition Aβ (result ± S.D.) (Aβ 1-42 fibrils; [5]): 57.8±6.36%; % Inhibition Aβ (result ± S.D.) (Aβ 1-42 fibrils; [6]): 99.5 ± 0.10%; % Inhibition IAPP (result ± S.D.) (IAPP fibrils [1]; [7]): 30.7 ± 6.71%; % Inhibition IAPP (result ± S.D.) (IAPP fibrils [1]; [8]): 79.9±1.47%; % Inhibition IAPP (result ± S.D.) (IAPP fibrils [1]; [9]): 97.7±0.19%; % Inhibition IAPP (result ± S.D.) (IAPP fibrils [1]; [10]): 100 ± 0.20%; % Inhibition NAC (result ± S.D.) (NAC fibrils; [11]): 67.3 ± 6.37%; % Inhibition NAC (result ± S.D.) (NAC fibrils; [12]): 93.9±0.77%; % Inhibition NAC (result ± S.D.) (NAC fibrils; [13]): 91.0±1.99%; % Inhibition NAC (result ± S.D.) (NAC fibrils; [14]): 98.0 ± 1.78%
,,,"O=C(NCc1ccc(O)c(O)c1)C(=Cc1ccc(O)c(O)c1)NC(=O)c1ccc(O)c(O)c1 [Compound 21, α-(3,4-dihydroxybenzamido)-3,4-dihydroxycinnamic acid 3,4-dihydroxybenzyl amide]",8.9 ± 2.13%,48.2 ± 8.29%,81 ± 1.31%,98.6 ± 0.54%,5.4 ± 15.4%,25.8 ± 3.61%,85.4 ± 0.86%,98.5 ± 0.06%,0.0 ± 2.10%,5.1 ± 4.53%,10.4 ± 3.53%,35.9 ± 0.21%,,
0%,35.6 ± 9.73%,58 ± 8.43%,"O=C(c1ccc(O)c(O)c1)N1CCN(C(=O)c2ccc(O)c(O)c2)CC1 [Compound 23, 1,4-bis(3,4-dihydroxybenzoyl)piperazine]",0%,16.5 ± 4.02%,26.2 ± 4.37%,46.7 ± 4.62%,27.3 ± 45.4%,44.3 ± 32.5%,67.2 ± 18.4%,85.2 ± 0.55%,5.1 ± 2.45%,9.3 ± 1.40%,4.5 ± 4.12%,5.5 ± 2.33%,,
,,,"O=C(Nc1ccc(O)c(O)c1)c1ccc(O)c(O)c1 [Compound 51, 3,4-dihydroxybenzoic acid 3,4-dihydroxyanilide]",29 ± 25.2%,55.3 ± 5.23%,94.9 ± 0.24%,99.4 ± 0.05%,11.8 ± 6.45%,56.6 ± 1.69%,96.6 ± 1%,99.9 ± 0.11%,1.6 ± 1.01%,3.6 ± 2.59%,27.5 ± 3.49%,55.6 ± 1.48%,,
,,,"O=C(Nc1ccc(O)c(O)c1)Nc1ccc(O)c(O)c1 [Compound 76, 1,3-bis(3,4-dihydroxyphenyl)urea]",12.2 ± 5.98%,40.9 ± 3.76%,86.5 ± 1.18%,99.3 ± 1.35%,9 ± 0.32%,41.5 ± 6.67%,87.5 ± 1.89%,99.6 ± 1.01%,3.4 ± 1.07%,14.2 ± 2.25%,16.5 ± 2.60%,53.9 ± 5.44%,,

Compound,inhibition (NAC fibrils; [11]),inhibition (NAC fibrils; [12]),inhibition (NAC fibrils; [14]),inhibition (Aβ 1-42 fibrils; [3]),inhibition (Aβ 1-42 fibrils; [4]),inhibition (Aβ 1-42 fibrils; [5]),inhibition (Aβ 1-42 fibrils; [6]),inhibition (IAPP fibrils [1]; [7]),inhibition (IAPP fibrils [1]; [8]),inhibition (IAPP fibrils [1]; [9]),inhibition (IAPP fibrils [1]; [10]),"% Inhibition IAPP (result ± S.D.), Congo red binding (IAPP fibrils [2]; [7])","% Inhibition IAPP (result ± S.D.), Congo red binding (IAPP fibrils [2]; [8])","% Inhibition IAPP (result ± S.D.), Congo red binding (IAPP fibrils [2]; [9])","% Inhibition IAPP (result ± S.D.), Congo red binding (IAPP fibrils [2]; [10])",disruption/disassembly of pre-formed NAC fibrils (in words) (NAC fibrils),also measured
"O=C(Nc1ccc(O)c(O)c1)C(=O)Nc1ccc(O)c(O)c1 [Compound 63, oxalic acid bis(3,4-dihydroxyanilide)]",17.3 ± 12.6%,33 ± 1.69%,45.6 ± 31%,1.6 ± 9.47%,57.5 ± 10.6%,23.6 ± 25.8%,85.3 ± 0.91%,19 ± 0.3%,56.2 ± 8.77%,84.2 ± 1.16%,94.9 ± 0.65%,0.0 ± 2.25%,11.7 ± 2.26%,4.5 ± 1.62%,15.4 ± 1.34%,dose-dependent disruption/disassembly,
